Assay results reported in patent US20230116703A1, “NOVEL ERGOLINES AND METHODS OF TREATING MOOD DISORDERS” (priority 2021, published 2023).

Columns and labels:
5-HT2B receptor = target: T1, 5-HT2B receptor (Homo sapiens, UniProt P41595); test: cell-based; conditions: Ca^2+ flux, agonist; for EC50: read-out: 5-HT2B EC50
T1 construct: host or cells: HEK293
Experimental: (§1) Functional Assays at 5-HT2A, 5-HT2B, and 5-HT1A. Agonist activity at 5-HT2A, 5-HT2B, and 5-HT1A receptors was determined using a FLIPR Ca^2+ flux assay at WuXi AppTec (Hong Kong) Limited according to their standard protocols. Briefly, stably transfected cells expressing the receptor of interest (HEK293 for 5-HT2A and 5-HT2B; CHO cells for 5-HT1A) were grown and plated in a 384 well plate and incubated at 37° C. and 5% CO2 overnight. A solution of 250 mM probenecid in 1 mL FLIPR assay buffer was prepared fresh. This was combined with a fluorescent dye (Fluo-4 Direct™) to make a final assay concentration of 2.5 mM. […] The fluorescent dye was then added to the assay plate along with assay buffer to a final volume of 40 μL. The cell plate was incubated for 50 min at 37° C. and 5% CO2 and placed into the FLIPR Tetra along with the compound plate. 10 μL of references and compounds were then transferred from the compound plate into the cell plate and the fluorescent signal was read.

5-HT1A receptor = target: T2, 5-HT1A receptor (Homo sapiens, UniProt P08908); test: cell-based; conditions: Ca^2+ flux, agonist; for EC50: read-out: 5-HT1A EC50
T2 construct: host or cells: CHO cells
T2 sequence (P08908 1-422): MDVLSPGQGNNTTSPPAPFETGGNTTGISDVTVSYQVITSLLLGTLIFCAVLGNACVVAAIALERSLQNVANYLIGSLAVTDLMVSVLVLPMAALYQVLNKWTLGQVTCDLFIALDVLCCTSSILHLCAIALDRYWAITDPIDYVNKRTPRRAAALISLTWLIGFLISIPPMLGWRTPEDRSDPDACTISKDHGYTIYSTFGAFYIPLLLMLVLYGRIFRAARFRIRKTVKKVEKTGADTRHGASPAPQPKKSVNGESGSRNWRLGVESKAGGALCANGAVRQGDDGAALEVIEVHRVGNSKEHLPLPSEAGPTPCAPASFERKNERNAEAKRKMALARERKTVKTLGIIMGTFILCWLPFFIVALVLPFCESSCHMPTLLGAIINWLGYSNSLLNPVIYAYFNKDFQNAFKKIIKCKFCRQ
Experimental: as §1

5-HT2A receptor [1] = target: T3, 5-HT2A receptor (Homo sapiens, UniProt P28223); test: biochemical; assay type: binding; conditions: for Ki: 1 nM [^3H]ketanserin, HEK293 stable cell line, read-out: 5-HT2A Receptor Ki (nM) ([^3H]ketanserin); for 5-HT2A receptor binding affinity / potency (in words): radioligand binding
T3 construct: host or cells: HEK293
Experimental: Affinity of the test compounds for the 5-HT2A receptor was determined in radioligand binding experiments with [^3H]ketanserin by WuXi AppTec (Hong Kong) Limited, using methods adapted from the literature and under conditions described in Table 1.

5-HT1B receptor = 5-HT1B receptor (Homo sapiens, UniProt P28222); test: cAMP accumulation agonist assay at 5-HT1B; assay type: cell-based; conditions: cAMP, agonist; for EC50: read-out: 5-HT1B EC50
Experimental: Disclosed compounds were tested for agonist activity at several serotonin receptor subtypes (5-HT2A, […], 5-HT2C, and 5-HT1A) using Ca^2+ flux functional assays and the 5-HT1B receptor using a cAMP accumulation assay, with the results summarized in Table 4. […] Potent agonist activity was also observed at the other serotonin receptors tested, although the selectivity profile among the receptors varied across compounds. […]. However, at the same time, the N-propyl compounds were more efficacious agonists at 5-HT2B than the corresponding N-methyl compounds. The selectivity of disclosed compounds for 5-HT2A over 5-HT2C and 5-HT1A was less predictable and varied widely across compounds, ranging from ˜1:6 to ˜20:1 (2C/2A) in the case of 5-HT2C and from ˜1:4 to >100:1 (1A/2A) in the case of 5-HT1A. […] An azetidinyl amide substituent tended to increase potency at 5-HT1A relative to 5-HT2A.
Functional Assay at 5-HT1B. Agonist activity at 5-HT1B was determined using a cAMP accumulation protocol at WuXi AppTec (Hong Kong) Limited according to their standard protocols. Briefly, stably transfected cells were plated in an OptiPlate-384 well plate, incubated at RT for 60 mins, and cAMP standard solution (800 nM, 10 μL) was added to the blank well. Then, 10 μL detection reagent was added to each well, the plate incubated for 60 mins at RT, and the plate read using EnVision.

[2] = Metabolic stability in human liver microsomes (HLM); assay type: in vitro ADME; conditions: both sexes, human, pooled human liver microsomes, pH 7.4, 0.50 mg protein per mL
Excerpt: HLM Stability. Pooled HLM from adult male and female donors (Corning 452117) were used.

5-HT2A receptor [3] = target: T3, 5-HT2A receptor; test: cell-based; assay type: cell-based; conditions: Ca^2+ flux, agonist; for EC50: read-out: 5-HT2A EC50
Experimental: as §1

Chain of 5-HT1B receptor (P28222 whole entry): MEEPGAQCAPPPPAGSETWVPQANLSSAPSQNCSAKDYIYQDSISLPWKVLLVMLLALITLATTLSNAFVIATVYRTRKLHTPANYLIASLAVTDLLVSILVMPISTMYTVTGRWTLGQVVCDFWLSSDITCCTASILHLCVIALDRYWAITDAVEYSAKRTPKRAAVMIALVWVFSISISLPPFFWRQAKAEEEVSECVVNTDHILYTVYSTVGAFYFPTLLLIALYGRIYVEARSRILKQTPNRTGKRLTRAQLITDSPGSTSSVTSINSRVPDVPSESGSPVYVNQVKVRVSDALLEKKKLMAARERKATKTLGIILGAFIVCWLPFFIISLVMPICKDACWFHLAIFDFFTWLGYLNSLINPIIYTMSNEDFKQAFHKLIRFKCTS
T3 sequence (P28223 whole entry): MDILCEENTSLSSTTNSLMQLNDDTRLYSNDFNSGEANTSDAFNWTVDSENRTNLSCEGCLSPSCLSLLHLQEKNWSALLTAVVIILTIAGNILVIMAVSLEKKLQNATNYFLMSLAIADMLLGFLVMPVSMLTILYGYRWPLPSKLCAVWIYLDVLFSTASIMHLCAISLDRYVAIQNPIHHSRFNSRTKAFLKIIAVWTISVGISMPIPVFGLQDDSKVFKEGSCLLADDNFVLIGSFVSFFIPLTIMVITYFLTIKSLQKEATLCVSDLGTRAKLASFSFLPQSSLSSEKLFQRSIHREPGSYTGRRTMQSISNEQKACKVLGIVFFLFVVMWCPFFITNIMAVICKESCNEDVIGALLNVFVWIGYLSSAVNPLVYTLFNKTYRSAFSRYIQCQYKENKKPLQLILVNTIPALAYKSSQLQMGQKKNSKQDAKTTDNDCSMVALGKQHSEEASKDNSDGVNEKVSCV
T1 sequence (P41595 whole entry): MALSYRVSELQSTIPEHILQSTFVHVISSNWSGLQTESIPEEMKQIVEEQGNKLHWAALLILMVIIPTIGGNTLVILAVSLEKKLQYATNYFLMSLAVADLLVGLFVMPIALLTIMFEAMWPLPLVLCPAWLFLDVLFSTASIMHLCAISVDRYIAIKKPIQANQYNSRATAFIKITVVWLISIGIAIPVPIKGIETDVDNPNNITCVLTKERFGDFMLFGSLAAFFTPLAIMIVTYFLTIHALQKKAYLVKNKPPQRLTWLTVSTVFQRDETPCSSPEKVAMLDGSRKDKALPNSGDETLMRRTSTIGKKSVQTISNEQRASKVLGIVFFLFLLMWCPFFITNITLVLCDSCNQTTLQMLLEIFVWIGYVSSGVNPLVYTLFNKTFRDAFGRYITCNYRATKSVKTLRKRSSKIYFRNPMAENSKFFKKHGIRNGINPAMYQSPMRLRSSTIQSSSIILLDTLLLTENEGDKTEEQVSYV

SMILES	5-HT2B % Act @ Max Dose (5-HT2B receptor) [%]	EC50 (5-HT2B receptor) [nM]	5-HT1A % Act @ Max Dose (5-HT1A receptor) [%]	EC50 (5-HT1A receptor) [nM]	Ki (5-HT2A receptor [1]) [nM]	5-HT2A receptor binding affinity / potency (in words) (5-HT2A receptor [1])	5-HT1B % Act @ Max Dose (5-HT1B receptor) [%]	EC50 (5-HT1B receptor) [nM]	half-life at 1 μM [2] [min]	microsomal CLint at 1 μM [2] [µL/min/mg]	5-HT2A % Act @ Max Dose (5-HT2A receptor [3]) [%]	EC50 (5-HT2A receptor [3]) [nM]
CCCN1C[C@H](C(=O)N(CC)CC)C=C2c3cccc4c3C(CN4)C[C@H]21 (mixture of isomers) [Compound 36, (6aR,9R)—N,N-diethyl-7-propyl-4,5,5a,6,6a,7,8,9-octahydroindolo[4,3-fg]quinoline-9-carboxamide]	110.53	627	88.68	4.84	10.7	reduced in potency	97.51	22.7	32.8	42.2	77.54	50.4
CCN(CC)C(=O)[C@@H]1C=C2c3cccc4c3C(CN4)C[C@H]2N(C)C1 (mixture of isomers) [Compound 37, (6aR,9R)—N,N-diethyl-7-methyl-4,5,5a,6,6a,7,8,9-octahydroindolo[4,3-fg]quinoline-9-carboxamide]	24.06	465	108.98	17.2	11.4	reduced in potency	90.74	19.4	> 145	< 9.6	76.37	76.6
CCCN1C[C@H](C(=O)N(CC)CC)C=C2c3cccc4[nH]c(Br)c(c34)C[C@H]21 [Compound 9, (6aR,9R)-5-bromo-N,N-diethyl-7-propyl-4,6,6a,7,8,9-hexahydroindolo[4,3-fg]quinoline-9-carboxamide]	89.6	400	101.39	96.5	1.11		81.46	264	9.9	140	75.81	228
C[C@H]1C[C@H](C)N1C(=O)[C@@H]1C=C2c3cccc4[nH]cc(c34)C[C@H]2N(CCCF)C1 [Compound 26, ((2S,4S)-2,4-dimethylazetidin-1-yl)((6aR,9R)-7-(3-fluoropropyl)-4,6,6a,7,8,9-hexahydroindolo[4,3-fg]quinolin-9-yl)methanone]	100.66	431	97.94	3.63	11.3		77.16	734	20.5	67.7	83.23	15.6
C=CCN1C[C@H](C(=O)N2[C@@H](C)C[C@@H]2C)C=C2c3cccc4[nH]cc(c34)C[C@H]21 [Compound 27, ((6aR,9R)-7-allyl-4,6,6a,7,8,9-hexahydroindolo[4,3-fg]quinolin-9-yl)((2S,4S)-2,4-dimethylazetidin-1-yl)methanone]	96.0	351	90.8	2.97	8.96		96.92	88.7	16.1	86.1	81.1	12
